The results in this text go back to patent publication US6838237B2, “Antigenically reactive regions of the hepatitis a virus polyprotein” (The United States of America as represented by the …, priority 1996, dated 2005).

One experiment concerns anti-HAV-positive sera. As to the kind of experiment: EIA for anti-HAV: synthetic peptides adsorbed to wells, reacted with anti-HAV-positive acute sera. The conditions noted are these: for Reactivity with acute sera (reactive/tested): experiment 1: sera 1:100, anti-human IgG-HRP, cutoff P/N 3.0; for Reactivity with acute sera (percent of sera reactive): experiment 1: sera 1:100, cutoff P/N 3.0; for P/N for acute sera (mean) / P/N for acute sera (range, in parentheses): OD493 positive/negative ratio of reactive sera. In kind it is binding, human. The text has this:
(§1) All anti-HAV-positive and anti-HAV-negative sera were randomly selected from a collection reposited at the Centers for Disease Control and Prevention, Atlanta, Ga. Serum specimens were collected from anti-HAV-positive patients with acute liver disease. Anti-HAV-negative serum specimens were collected from normal blood donors. All sera were initially tested by commercially available kit for the presence of anti-HAV activity (HAVAB and HAVAB-M, Abbott Laboratories, Abbott Park, Ill.)
(§2) Synthetic peptides (110 ml) at a concentration of 10 mg/ml in 0.1 M phosphate-buffered saline (PBS), pH 7.5, were adsorbed to microtiter wells (Immulon II, Dynatech Laboratories, Inc.) at room temperature for 12 h. Sera were diluted in PBS containing 0.1% Tween 20 and 10% normal goat serum (PBS-T) and 100 ml were added to each well, incubated for 60 min at 37E C, and washed with PBS containing Tween-20. […] Two different cutoffs were established for experiments 1 and 2. In experiment 1, the cutoff, expressed as a P/N ratio and equal to 3.0, was statistically established as the mean of negative controls plus at least 3.5 standard deviations (SD) above the mean, where P represents the optical density value at 493 nm (OD493) of anti-HAV-positive specimens and N represents the optical density value of negative controls. In experiment 2, a different cutoff was used to ensure statistical reliability and accurate interpretation of positive results. In this case, in addition to anti-HAV-negative sera, two irrelevant synthetic peptides were used as supplemental negative controls to determine the degree of nonspecific binding of anti-HAV sera to synthetic peptides. One cutoff, expressed as a P/N ratio and equal to 3.0, corresponded to the mean of negative serum controls plus at least 3.5 SD above the mean. A second cutoff was also expressed as a P/N ratio, where P represents the optical density value at 493 nm (OD493) for HAV peptides immunoreacting with anti-HAV-positive specimens and N represents the optical density value obtained with the irrelevant peptides. The second cutoff was equal 2.0 and corresponded to the mean of OD values obtained with the irrelevant peptides plus at least 3.5 SD above the mean. Synthetic peptides were considered immunoreactive with anti-HAV serum specimens only when both cutoffs were satisfied.

For another experiment, the system named is anti-HAV-negative sera. In words: EIA for anti-HAV: synthetic peptides reacted with anti-HAV-negative sera. In kind it is binding, human. The conditions noted are these: experiment 1: sera 1:100, cutoff P/N 3.0.
From the text: as §1, §2

Several values for one entry are separate records, joined by “and”; a condition that tells them apart may be missing. Equal values may be shown once.

Take LSFSCYLSVTEQSEFYFPRA [YK-1307]: in the experiment on anti-HAV-positive sera, the “Reactivity with acute sera (reactive/tested)” value is 6/48 and the “Reactivity with acute sera (percent of sera reactive)” value amounted to 12.5%. For the same sequence, in the experiment with anti-HAV-positive sera (experiment 1), the “P/N for acute sera (mean)” value was found to be 5.88 and the “P/N for acute sera (range, in parentheses)” value is recorded as “(4.17-7.64)”. In the experiment on anti-HAV-negative sera, the “Reactivity with negative sera (reactive/tested)” value is on record as 0/51.
LYNEQFAVQGLLRYHTYARF [YK-1215]: in the experiment on anti-HAV-positive sera, the “immunoreactivity with anti-HAV-positive sera (in words)” value (from here on “immunoreactivity”) is “not found immunoreactive”, the “Reactivity with acute sera (reactive/tested)” value was 10/41 and the “Reactivity with acute sera (percent of sera reactive)” value worked out at 24.4%. In the experiment on anti-HAV-positive sera (experiment 1), the “P/N for acute sera (mean)” value worked out at 5.29 and the “P/N for acute sera (range, in parentheses)” value is recorded as “(3.41-8.83)”. The “Reactivity with negative sera (reactive/tested)” value in the experiment on anti-HAV-negative sera is on record as 0/46.
Turning to MEEKATYVHKKNDGTTVDLT [YK-1388], in the experiment with anti-HAV-positive sera, the “Reactivity with acute sera (reactive/tested)” value is 4/41 and the “Reactivity with acute sera (percent of sera reactive)” value turned out to be 9.8%. Moreover, in the experiment with anti-HAV-positive sera (experiment 1), the “P/N for acute sera (mean)” value came to 4.29 and the “P/N for acute sera (range, in parentheses)” value was “(3.99-4.7)”. Further, the “Reactivity with negative sera (reactive/tested)” value in the experiment on anti-HAV-negative sera is listed as 0/27.
The matching figures for MLSKYSLPIVEEPEDYKEAS [YK-1399]: 5/41, 12.2%, 6.86, “(4.05-16.46)” and 1/27.
The matching figures for MSRIAAGDLESSVDDPRSEE [YK-1312]: 13/48, 27.1%, 8.7, “(4.44-25.9)” and 2/51.
The corresponding values for NIGTGTSAYTSLNVLARFTD [YK-1224] are 9/41, 22.0%, 3.53, “(3.09-4.17)” and 0/46.
In the case of NILKDNQQKIEKAIEEADEF [YK-1341], in the experiment with anti-HAV-positive sera, the “Reactivity with acute sera (reactive/tested)” value was 3/48 and the “Reactivity with acute sera (percent of sera reactive)” value was found to be 6.3%. For the same sequence, in the experiment on anti-HAV-positive sera (experiment 1), the “P/N for acute sera (mean)” value was found to be 5.23 and the “P/N for acute sera (range, in parentheses)” value is “(3.44-8.26)”. The “Reactivity with negative sera (reactive/tested)” value in the experiment on anti-HAV-negative sera was 1/51.
The corresponding values for NPSPKTVYVKEAIDRRLHFK [YK-1360] are 4/41, 9.8%, 4.08, “(3.68-4.71)” and 0/46.
The corresponding values for NRGKMDVSGVQAPVGAITTI [YK-1268] are 7/46, 15.2%, 9.1, “(6.07-15.25)” and 2/48.
As for PLNSNAMLSTESMMSRIAAG [YK-1310], in the experiment on anti-HAV-positive sera, the “Reactivity with acute sera (reactive/tested)” value is reported as 3/48 and the “Reactivity with acute sera (percent of sera reactive)” value was found to be 6.3%. In addition, the “P/N for acute sera (individual values)” value in the experiment with anti-HAV-positive sera (experiment 1, single sera listed with semicolon) was 3.68 and 5.23. For the same sequence, the “Reactivity with negative sera (reactive/tested)” value with anti-HAV-negative sera was 0/51.
As for PQLKPVSELTFLKRSFNLVE [YK-1431], in the experiment on anti-HAV-positive sera, the “Reactivity with acute sera (reactive/tested)” value is 4/41 and the “Reactivity with acute sera (percent of sera reactive)” value came to 9.8%. Besides, in the experiment on anti-HAV-positive sera (experiment 1), the “P/N for acute sera (mean)” value was found to be 14.13 and the “P/N for acute sera (range, in parentheses)” value was “(3.17-27.53)”. In addition, in the experiment on anti-HAV-negative sera, the “Reactivity with negative sera (reactive/tested)” value is given as 1/27.
The corresponding values for PYKELRLEVGKQRLKYAQEE [YK-1316] are 20/48, 41.7%, 8.71, “(3.5-17.8)” and 2/51.
For the sequence QFPFNASDSVGQQIKVIPVD [YK-1241], in the experiment with anti-HAV-positive sera, the “immunoreactivity” value is “Very weakly reactive”, the “Reactivity with acute sera (reactive/tested)” value is 1/41 and the “Reactivity with acute sera (percent of sera reactive)” value was 2.4%. Moreover, the “P/N for acute sera (mean)” value with anti-HAV-positive sera (experiment 1) is listed as 3.56. In the experiment on anti-HAV-negative sera, the “Reactivity with negative sera (reactive/tested)” value was 0/46.
As to QNVPDPQVGITTMKDLKGKA [YK-1266], in the experiment on anti-HAV-positive sera, the “Reactivity with acute sera (reactive/tested)” value is listed as 14/46 and the “Reactivity with acute sera (percent of sera reactive)” value came out at 30.4%. Also, in the experiment with anti-HAV-positive sera (experiment 1), the “P/N for acute sera (mean)” value was 8.25 and the “P/N for acute sera (range, in parentheses)” value is “(3.27-18.30)”. Also, the “Reactivity with negative sera (reactive/tested)” value with anti-HAV-negative sera is on record as 0/48.
Take QRLKYAQEELSNEVLPPPRK [YK-1317]: in the experiment on anti-HAV-positive sera, the “Reactivity with acute sera (reactive/tested)” value is 55/66 and the “Reactivity with acute sera (percent of sera reactive)” value amounted to 83.3%. Also, in the experiment with anti-HAV-positive sera (experiment 1), the “P/N for acute sera (mean)” value stood at 19.35 and the “P/N for acute sera (range, in parentheses)” value is “(3.47-125.8)”. For the same sequence, the “Reactivity with negative sera (reactive/tested)” value with anti-HAV-negative sera was 1/66.
RCEPVVCYLYGKRGGGKSLT [YK-1348]: in the experiment with anti-HAV-positive sera, the “percent of (IgM) anti-HAV-positive sera immunoreactive with peptide” value was 29.2%, the “Reactivity with acute sera (reactive/tested)” value was 14/48 and the “Reactivity with acute sera (percent of sera reactive)” value is given as 29.2%. In the experiment on anti-HAV-positive sera (experiment 1), the “P/N for acute sera (mean)” value is on record as 6.96 and the “P/N for acute sera (range, in parentheses)” value is listed as “(3.66-15.48)”. Also, the “Reactivity with negative sera (reactive/tested)” value in the experiment on anti-HAV-negative sera is listed as 2/51.
Consider RGKGEGLPGMCGGALVSSNQ [YK-1390], for which, in the experiment on anti-HAV-positive sera, the “Reactivity with acute sera (reactive/tested)” value is 10/41 and the “Reactivity with acute sera (percent of sera reactive)” value is recorded as 24.4%. For the same sequence, in the experiment with anti-HAV-positive sera (experiment 1), the “P/N for acute sera (mean)” value came out at 6.62 and the “P/N for acute sera (range, in parentheses)” value is given as “(3.52-13.98)”. Moreover, the “Reactivity with negative sera (reactive/tested)” value in the experiment with anti-HAV-negative sera is reported as 1/27.
In the case of RIMKVEFTQCSMNVVSKTLF [YK-1394], in the experiment with anti-HAV-positive sera, the “Reactivity with acute sera (reactive/tested)” value was 13/41 and the “Reactivity with acute sera (percent of sera reactive)” value is recorded as 31.7%. In addition, in the experiment with anti-HAV-positive sera (experiment 1), the “P/N for acute sera (mean)” value worked out at 6.98 and the “P/N for acute sera (range, in parentheses)” value is reported as “(4.05-12.93)”. Also, the “Reactivity with negative sera (reactive/tested)” value with anti-HAV-negative sera was 3/27.
Turning to RMYWGPAISYFHLNPGFHTG [YK-1414], in the experiment with anti-HAV-positive sera, the “Reactivity with acute sera (reactive/tested)” value is 1/41 and the “Reactivity with acute sera (percent of sera reactive)” value turned out to be 2.4%. Moreover, the “P/N for acute sera (mean)” value in the experiment on anti-HAV-positive sera (experiment 1) is recorded as 3.35. Also, in the experiment on anti-HAV-negative sera, the “Reactivity with negative sera (reactive/tested)” value is 0/27.
On to SDPSQGGGIKITHFTTWTSI [YK-1235], for which, in the experiment on anti-HAV-positive sera, the “Reactivity with acute sera (reactive/tested)” value is 11/46 and the “Reactivity with acute sera (percent of sera reactive)” value amounted to 23.9%. Moreover, in the experiment on anti-HAV-positive sera (experiment 1), the “P/N for acute sera (mean)” value is given as 4.2 and the “P/N for acute sera (range, in parentheses)” value is listed as “(3.0-4.95)”. Besides, the “Reactivity with negative sera (reactive/tested)” value in the experiment on anti-HAV-negative sera is 0/48.
Regarding SDSVGQQIKVIPVDPYFFQM [YK-1243], in the experiment on anti-HAV-positive sera, the “immunoreactivity” value is recorded as “Very weakly reactive”, the “Reactivity with acute sera (reactive/tested)” value is 1/41 and the “Reactivity with acute sera (percent of sera reactive)” value is 2.4%. The “P/N for acute sera (mean)” value with anti-HAV-positive sera (experiment 1) stood at 3.47. For the same sequence, the “Reactivity with negative sera (reactive/tested)” value in the experiment with anti-HAV-negative sera is 0/46.
As to SEKTIWSLIAWQRSNAEFEQ [YK-1434], in the experiment on anti-HAV-positive sera, the “Reactivity with acute sera (reactive/tested)” value is 11/41 and the “Reactivity with acute sera (percent of sera reactive)” value is 26.8%. Moreover, in the experiment with anti-HAV-positive sera (experiment 1), the “P/N for acute sera (mean)” value turned out to be 7.47 and the “P/N for acute sera (range, in parentheses)” value is “(3.85-16.03)”. The “Reactivity with negative sera (reactive/tested)” value with anti-HAV-negative sera was 1/27.
The corresponding values for SHIECRKPYKELRLEVGKQR [YK-1315] are 26/48, 54.2%, 13.71, “(3.1-75.61)” and 1/51.
The corresponding values for SKTRAIDACPLDYSILCRMY [YK-1412] are 10/41, 24.4%, 6.04, “(3.4-15.15)” and 2/27.
Regarding SLIAWQRSNAEFEQNLENAQ [YK-1435], in the experiment with anti-HAV-positive sera, the “Reactivity with acute sera (reactive/tested)” value is on record as 6/41 and the “Reactivity with acute sera (percent of sera reactive)” value is on record as 14.6%. In the experiment on anti-HAV-positive sera (experiment 1), the “P/N for acute sera (mean)” value came to 8.96 and the “P/N for acute sera (range, in parentheses)” value was “(5.16-13.71)”. In addition, the “Reactivity with negative sera (reactive/tested)” value with anti-HAV-negative sera is recorded as 1/27.
